Results: publication PMC12491243, “Rational design of indoleamine 2,3-dioxygenase 1 (IDO1) inhibitors featuring 1,2,3-triazole derivatives with enhanced anti-inflammatory and analgesic efficacy” (Frontiers in Pharmacology, 2025)
Like-named read-outs stand apart in the source and are kept apart here. Each block holds one compound with its values, some of them ahead of it.

Experiments:
[1] = system: Lewis lung carcinoma (LL2); parameters: method as in Pan et al., 2020; conditions: ref Pan et al., 2020, cited from earlier work
[2] = system: IDO1; conditions: cited from earlier work
[3] = system: hepatocellular carcinoma (Hepa1-6); parameters: method as in Pan et al., 2020; conditions: hepatocellular carcinoma (Hepa1-6) model; ref Pan et al., 2020; cited from earlier work
[4] = 2019, cited from earlier work
[5] = system: human IDO1; parameters: method as in Rohrig et al., 2012; Rohrig et al., 2019; conditions: ref Rohrig et al., 2012, 2019, read-out: IC50 in cellular assays, human IDO1; cited from earlier work
[6] = system: mouse IDO1; parameters: method as in Rohrig et al., 2012; Rohrig et al., 2019; conditions: ref Rohrig et al., 2012, 2019, read-out: IC50 in cellular assays, mouse IDO1; cited from earlier work
[7] = system: TDO; parameters: method as in Rohrig et al., 2012; Rohrig et al., 2019; conditions: ref Rohrig et al., 2012, 2019; cited from earlier work
[8] = system: IDO1; conditions: read-out: IC50 in enzymatic assays, cited from earlier work
[9] = system: IDO1; parameters: method as in Alexandre et al., 2018; conditions: ref Alexandre et al., 2018; read-out: IC50 in cellular assays; cited from earlier work
[10] = system: kynurenine production; parameters: method as in Wang et al., 2019; conditions: treated cells, low concentrations; ref Wang et al., 2019; cited from earlier work
[11] = system: IDO1 in MDA-MB-231 cells; parameters: method as in Panda et al., 2019; conditions: ref Panda et al., 2019; cited from earlier work
[12] = system: 5-HT reuptake; parameters: method as in earlier work; conditions: ref Crosignani et al., 2017; González-Gutiérrez et al., 2025; Mendez-Rojas et al., 2018; cited from earlier work
[13] = system: dopamine D2 receptor; parameters: method as in earlier work; conditions: ref Crosignani et al., 2017; González-Gutiérrez et al., 2025; Mendez-Rojas et al., 2018; cited from earlier work
[14] = molecular target: T1, IDO1 (Homo sapiens, UniProt P14902); assay: HeLa cell-based IDO1 inhibition assay; conditions: HeLa cells, 100 ng/mL human IFN-γ, 18 h, kynurenine absorbance at 480 nm
T1 construct: endogenous in cells; host or cells: HeLa cells stimulated with 100 ng/mL human IFN-γ
Experimental: To evaluate the IDO1 inhibitory activity of the newly synthesized derivatives, HeLa cells with high IDO1 expression were used as the experimental model. […] To perform the HeLa cell-based IDO1 inhibition assay, HeLa cells were seeded at a density of 50,000 cells per well in a 96-well microplate containing 100 μL of DMEM supplemented with 10% fetal bovine serum and 1% penicillin-streptomycin. The cells were incubated overnight at 37 °C in a humidified atmosphere with 5% CO2. The following day, 100 μL of growth medium containing diluted inhibitors and 100 ng/mL human IFN-γ was added to each well. The cells were then incubated at 37 °C in a CO2 incubator for 18 h. […] The plate was incubated at 50 °C for 30 min and then centrifuged at 2,500 rpm for 10 min to remove any sediment. Next, 100 μL of the supernatant was transferred to a separate 96-well plate and mixed with 100 μL of 2% (w/v) 4-(dimethylamino)benzaldehyde in acetic acid. After a 10-min incubation at room temperature, the absorbance of the resulting yellow color, indicative of kynurenine, was measured at 480 nm using a microplate reader.

T1 sequence (P14902 whole entry): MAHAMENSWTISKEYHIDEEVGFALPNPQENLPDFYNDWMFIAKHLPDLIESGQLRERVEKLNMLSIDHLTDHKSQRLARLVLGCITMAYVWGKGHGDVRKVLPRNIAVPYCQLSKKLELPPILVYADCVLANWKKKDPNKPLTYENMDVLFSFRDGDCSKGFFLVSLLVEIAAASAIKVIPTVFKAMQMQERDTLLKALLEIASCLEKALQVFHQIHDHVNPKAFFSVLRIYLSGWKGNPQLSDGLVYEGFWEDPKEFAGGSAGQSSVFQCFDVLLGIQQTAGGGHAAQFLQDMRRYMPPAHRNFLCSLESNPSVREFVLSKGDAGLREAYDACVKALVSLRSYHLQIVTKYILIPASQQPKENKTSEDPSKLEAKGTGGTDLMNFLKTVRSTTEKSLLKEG

IC50 [14]: 11.2 µM
Compound: O=C1COc2ccc(NC(=O)c3cccc(-c4cn(Cc5ccc(Br)cc5)nn4)c3)cc2N1 [Compound 14a]

IC50 [14]: 8.02 µM
Compound: O=C1COc2ccc(NC(=O)c3cccc(-c4cn(Cc5ccc(F)c(Cl)c5)nn4)c3)cc2N1 [Compound 14f]

IC50 [14]: 10.1 µM
Compound: O=C1COc2ccc(NC(=O)c3cccc(-c4cn(Cc5cccc(Cl)c5)nn4)c3)cc2N1 [Compound 14g]

IC50 [14]: 9.98 µM
Compound: O=C1COc2ccc(NC(=O)c3cccc(-c4cn(Cc5cc(Cl)ccc5F)nn4)c3)cc2N1 [Compound 14h]

IC50 [14]: > 30 µM
Compound: O=C1COc2ccc(NC(=O)c3cccc(-c4cn(Cc5ccc(F)cc5)nn4)c3)cc2N1 [Compound 14i]

IC50 [14]: > 30 µM
Compound: O=C1COc2ccc(NC(=O)c3cccc(-c4cn(Cc5ccccc5F)nn4)c3)cc2N1 [Compound 14j]

Continued, compound first:

Compound: O=C1c2cc(F)ccc2C(=O)c2c1nnn2-c1ccc(F)c(Cl)c1 [Compound 2]
toxicity in vivo models ([1]; LL2 and Hepa1-6 in vivo models): minimal toxicity | anti-tumor activity in vivo ([1]; Lewis lung carcinoma (LL2) model): significant anti-tumor activity | IC50 ([2]; ref Pan et al., 2020, read-out: IDO1 inhibition IC50): 0.005 µM | anti-tumor activity in vivo [3]: significant anti-tumor activity

Compound: Oc1ccc(Cl)cc1-c1c[nH]nn1 [Compound 3]
cytotoxicity ([4]; cellular assays, ref Rohrig et al., 2012, Rohrig et al.): minimal cytotoxicity | IC50 [5]: 0.08 µM | IC50 [6]: 0.002 µM | activity against TDO [7]: no activity | IC50 ([8]; ref Rohrig et al., 2012, Rohrig et al., 2019): 0.33 µM

Compound: Clc1ccc(Nc2c[nH]nn2)cc1 [Compound 4]
IC50 [9]: 0.023 µM | IC50 ([8]; ref Alexandre et al., 2018): 11.3 µM

Compound: COc1cccc2c1C(=O)C1=C(C[C@H](Cn3cc(-c4ccccc4)nn3)O[C@@H]1C)C2=O [Compound 5]
reduction of kynurenine production [10]: over 60% | cytotoxicity ([4]; ref Wang et al.): minimal cytotoxicity | IC50 ([2]; ref Wang et al., 2019, read-out: potency against IDO1, IC50): 6 µM

Compound: NS(=O)(=O)NCCNC(=O)c1n[nH]nc1-c1ccc(F)c(F)c1 [Compound 6]
cytotoxicity ([4]; ref Panda et al.): negligible cytotoxicity | IDO1 inhibition in MDA-MB-231 cells [11]: strong IDO1 inhibition

Compound: CC(CCN1CCN(c2cccc3c2OCC(=O)N3)CC1)c1c[nH]c2ccc(F)cc12 (stereo not drawn) [Compound 11]
activity in inhibiting 5-HT reuptake [12]: high activity | dopamine D2 receptor inhibition [13]: potent

Compound: Cc1cc(C)cc(Cn2cc(-c3cccc(C(=O)Nc4ccc5c(c4)NC(=O)CO5)c3)nn2)c1 [Compound 14b]
IC50 [14]: > 30 µM

Compound: O=C1COc2ccc(NC(=O)c3cccc(-c4cn(Cc5cc(F)c(F)c(F)c5)nn4)c3)cc2N1 [Compound 14c]
IC50 [14]: > 30 µM

Compound: N#Cc1ccc(F)cc1Cn1cc(-c2cccc(C(=O)Nc3ccc4c(c3)NC(=O)CO4)c2)nn1 [Compound 14d]
IC50 [14]: > 30 µM
